Results from patent US20230348362A1, “LIPID COMPOUNDS AND LIPID NANOPARTICLE COMPOSITIONS” (Suzhou Abogen Biosciences Co., Ltd., priority 2021, published 2023).

How the values were obtained:
[1] = Encapsulation efficiency of lipid nanoparticles, Quant-it Ribogreen RNA assay; format: physicochemical; conditions: LNP of lipid/DSPC/cholesterol/PEG-lipid 50:10:38.5:1.5 encapsulating hEPO mRNA
Protocol: (§1) Briefly, a cationic lipid provided herein, DSPC, cholesterol, and PEG-lipid were solubilized in ethanol at a molar ratio of 50:10:38.5:1.5, and mRNA were diluted in 10 to 50 mM citrate buffer, pH=4. The LNPs were prepared at a total lipid to mRNA weight ratio of approximately 10:1 to 30:1 by mixing the ethanolic lipid solution with the aqueous mRNA solution at a volume ratio of 1:3 using a microfluidic apparatus, total flow rate ranging from 9-30 mL/min. Ethanol were thereby removed and replaced by DPBS using dialysis. Finally, the lipid nanoparticles were filtered through a […] sterile filter.
(§2) Lipid nanoparticle size were determined by dynamic light scattering using a Malvern Zetasizer Nano ZS (Malvern UK) using a […] backscatter detection mode. The encapsulation efficiency of lipid nanoparticles were determined using a Quant-it Ribogreen RNA quantification assay kit (Thermo Fisher Scientific, UK) according to the manufacturer's instructions.

[2] = Lipid nanoparticle size and polydispersity by dynamic light scattering; format: physicochemical; conditions: LNP of lipid/DSPC/cholesterol/PEG-lipid 50:10:38.5:1.5 encapsulating hEPO mRNA
Protocol: as §1, §2

With `CCCCCCCCCCCCC(O)CN(CCCCCC(=O)OCC(CCCCCC)CCCCCCCC)CCN(CCCCCC(=O)OCCCCCCCCCCC)C1CCC1` (stereo not drawn) [Compound 2] the “Encapsulation Efficiency” value [1] was 86.6%, the polydispersity [2] was 0.066 and the “size (nm)” value [2] was 64.03 nm.

In the case of `CCCCCCCCCCCOC(=O)CCCCCN(CCN(CCO)CCCCCC(=O)OCC(CCCCCC)CCCCCCCC)C1CCCCC1` (stereo not drawn) [Compound 6], the “Encapsulation Efficiency” value [1] was 87.7%, the polydispersity [2] was 0.089 and the “size (nm)” value [2] was 101.6 nm.

In the case of `CCCCCCCCC(CCCCCC)COC(=O)CCCCCN(CCO)CCN(CCCCCC(=O)OCC(CCCCCC)CCCCCCCC)C1CC1` (stereo not drawn) [Compound 9], the “Encapsulation Efficiency” value [1] was 93.9%, the polydispersity [2] was 0.181 and the “size (nm)” value [2] was 55.12 nm.

With `CCCCCCCCC(CCCCCCCC)CNC(=O)CCCCCN(CCO)CCN(CCCCCC(=O)NCC(CCCCCCCC)CCCCCCCC)C1CCC1` [Compound 11] the “Encapsulation Efficiency” value [1] was 82.8%, the polydispersity [2] was 0.055 and the “size (nm)” value [2] was 66.15 nm.

In the case of `CCCCCCCCC(CCCCCCCC)CNC(=O)CCCCCN(CCO)CCN(CCCCCC(=O)NCC(CCCCCCCC)CCCCCCCC)C1CCCCCC1` [Compound 14], the “Encapsulation Efficiency” value [1] was 89.8%, the polydispersity [2] was 0.118 and the “size (nm)” value [2] was 60.06 nm.

For `CCCCCCCCCCCCCCOCC(CN(CCN(CCO)CCCCCC(=O)OCC(CCCCCCCC)CCCCCCCC)C1CCC1)OCCCCCCCC` (stereo not drawn) [Compound 20], the “Encapsulation Efficiency” value [1] was 95.8%, the polydispersity [2] was 0.015 and the “size (nm)” value [2] was 74.98 nm.

With `CCCCCCCCCCCOC(=O)CCCCCN(CCN(CCO)CCCCCC(=O)OCC(CCCCCCC)CCCCCCC)C1CCCCC1` [Compound 22] the “Encapsulation Efficiency” value [1] was 95.5%, the polydispersity [2] was 0.047 and the “size (nm)” value [2] was 87.7 nm.

In the case of `CCCCCCCCCCCOC(=O)CCCCCN(CCN(CCO)CCCCCC(=O)NCC(CCCCCCCC)CCCCCCCC)C1CCCCC1` [Compound 44], the “Encapsulation Efficiency” value [1] was 92.6%, the polydispersity [2] was 0.081 and the “size (nm)” value [2] was 77.48 nm.

With `CCCCCCCCCCCC(=O)OCCCCCN(CCN(CCO)CCCCCNC(=O)CC(CCCCCCCC)CCCCCCCC)C1CCCCC1` [Compound 59] the “Encapsulation Efficiency” value [1] was 95.1%, the polydispersity [2] was 0.063 and the “size (nm)” value [2] was 70.3 nm.

For `CCCCCCCCC(CCCCCC)C(=O)OCCCCCCN(CCO)CCN(CCCCCCOC(=O)C(CCCCCC)CCCCCCCC)C1CCC1` (stereo not drawn) [Compound 69], the “Encapsulation Efficiency” value [1] was 88.86%, the polydispersity [2] was 0.096 and the “size (nm)” value [2] was 60.99 nm.

With `CCCCCCCCC(CCCCCCCC)CC(=O)NCCCCCN(CCN(CCO)CCCCCOC(=O)CC(CCCCCCCC)CCCCCCCC)C1CCCCCCC1` [Compound 75] the “Encapsulation Efficiency” value [1] was 92.59%, the polydispersity [2] was 0.037 and the “size (nm)” value [2] was 76.62 nm.

In the case of `CCCCCCCCC(CCCCCCCC)COC(=O)CCCCCN(CCO)Cc1ccc(CN(CCCCCC(=O)OCC(CCCCCCCC)CCCCCCCC)C2CCC2)cc1` [Compound 88], the “Encapsulation Efficiency” value [1] was 92.56%, the polydispersity [2] was 0.080 and the “size (nm)” value [2] was 71.00 nm.

In the case of `CCCCCCCCCCCOC(=O)CCCCCN(CCN(CCO)CCCCCC(=O)N(CCCCCCCC)CCCCCCCC)C1CCCCC1` [Compound 90], the “Encapsulation Efficiency” value [1] was 82.56%, the polydispersity [2] was 0.030 and the “size (nm)” value [2] was 101.70 nm.

With `CCCCCCCCCCCC(=O)OCCCCCN(CCN(CCO)CCCCCOC(=O)CC(CCCCCCCC)CCCCCCCC)C1CCCC1` [Compound 93] the “Encapsulation Efficiency” value [1] was 92.84%, the polydispersity [2] was 0.064 and the “size (nm)” value [2] was 76.12 nm.

For `CCCCCCCCCCCC(=O)OCCCCCN(CCN(CCO)CCOCCOC(=O)CC(CCCCCCCC)CCCCCCCC)C1CCCCC1` [Compound 98], the “Encapsulation Efficiency” value [1] was 89.31%, the polydispersity [2] was 0.042 and the “size (nm)” value [2] was 91.85 nm.

With `CCCCCCCCCCCOC(=O)CCCCCN(CCN(CCO)CCCCCNP(=O)(OCCCCCCCCC)OCCCCCCCCC)C1CCCCC1` [Compound 100] the “Encapsulation Efficiency” value [1] was 85.49%, the polydispersity [2] was 0.085 and the “size (nm)” value [2] was 93.16 nm.

For `CCCCCCCCCCCCCCCCOC(=O)CCCCCN(CCN(CCO)CCCCCC(=O)OCC(CCCCCCCC)CCCCCCCC)C1CCCCC1` [Compound 104], the “Encapsulation Efficiency” value [1] was 92.43%, the polydispersity [2] was 0.044 and the “size (nm)” value [2] was 66.62 nm.

In the case of `CCCCCCCCCCCOC(=O)CCCCCN(CCN(CCO)CCCCCC(=O)OCC(CCCCCCCC)CCCCCCCC)C1CCC1` [Compound 106], the “Encapsulation Efficiency” value [1] was 92.14%, the polydispersity [2] was 0.067 and the “size (nm)” value [2] was 67.63 nm.

In the case of `CCCCC/C=C\C/C=C\CCCCCCCC(=O)OCCCCCN(CCN(CCO)CCCCCC(=O)OCC(CCCCCCCC)CCCCCCCC)C1CCCCC1` [Compound 108], the “Encapsulation Efficiency” value [1] was 91.83%, the polydispersity [2] was 0.068 and the “size (nm)” value [2] was 67.69 nm.

In the case of `CCCCCCCCCCCOC(=O)CCCCCN(CCN(CCO)CCOCCC(=O)OCC(CCCCCCCC)CCCCCCCC)C1CCC1` [Compound 114], the “Encapsulation Efficiency” value [1] was 90.35%, the polydispersity [2] was 0.044 and the “size (nm)” value [2] was 81.25 nm.

In the case of `CCCCCCCCCCCOC(=O)CCCCCN(CCN(CCO)CCOCCC(=O)OCC(CCCCCCCC)CCCCCCCC)C1CCCCC1` [Compound 115], the “Encapsulation Efficiency” value [1] was 90.22%, the polydispersity [2] was 0.058 and the “size (nm)” value [2] was 97.51 nm.

For `CCCCCCCCCCCOC(=O)CCOCCN(CCN(CCO)CCOCCC(=O)OCC(CCCCCCCC)CCCCCCCC)C1CCCCC1` [Compound 117], the “Encapsulation Efficiency” value [1] was 89.34%, the polydispersity [2] was 0.050 and the “size (nm)” value [2] was 79.67 nm.

For `CCCCCCCCCCCOC(=O)CCCCCN(CC=C(C)C)CCN(CCO)CCCCCC(=O)OCC(CCCCCCCC)CCCCCCCC` [Compound 119], the “Encapsulation Efficiency” value [1] was 92.21%, the polydispersity [2] was 0.087 and the “size (nm)” value [2] was 69.75 nm.

In the case of `CCCCCCCCCCCOC(=O)CCCCCN(CC=C(C)C)CCN(CCCCCC(=O)OCC(CCCCCCCC)CCCCCCCC)C1CCC(O)CC1` (stereo not drawn) [Compound 125], the “Encapsulation Efficiency” value [1] was 92.89%, the polydispersity [2] was 0.035 and the “size (nm)” value [2] was 90.98 nm.

In the case of `CCCCCCCCCCCOC(=O)CCCCCN(CCN(CCO)CCCCCC(=O)OCC(CCCCCCCC)CCCCCCCC)C1CC1` [Compound 129], the “Encapsulation Efficiency” value [1] was 90.52%, the polydispersity [2] was 0.069 and the “size (nm)” value [2] was 58.08 nm.

With `CCCCCCCCCCCOC(=O)CCCCCN(CCN(CCO)CCCCCC(=O)OCC(CCCCCCCC)CCCCCCCC)C1CCCC1` [Compound 130] the “Encapsulation Efficiency” value [1] was 91.06%, the polydispersity [2] was 0.060 and the “size (nm)” value [2] was 76.86 nm.

With `CCCCCCCCC(CCCCCC)COC(=O)CCCCCN(CCO)CCN(CCCCC(COC(=O)CCCCCCC)COC(=O)CCCCCCC)C1CCC1` (stereo not drawn) [Compound 135] the “Encapsulation Efficiency” value [1] was 87.16%, the polydispersity [2] was 0.035 and the “size (nm)” value [2] was 124.60 nm.

In the case of `CCCCCCCCC(CCCCCC)CNC(=O)CCCCCN(CCO)CCN(CCCCC(COC(=O)CCCCCCC)COC(=O)CCCCCCC)C1CCCC1` (stereo not drawn) [Compound 138], the “Encapsulation Efficiency” value [1] was 90.03%, the polydispersity [2] was 0.107 and the “size (nm)” value [2] was 81.24 nm.

In the case of `CCCCCCCCC(CCCCCC)COC(=O)CCCCCN(CCO)CCN(CCCCC(COC(=O)CCCCCCC)COC(=O)CCCCCCC)C1CCCCC1` (stereo not drawn) [Compound 139], the “Encapsulation Efficiency” value [1] was 87.81%, the polydispersity [2] was 0.076 and the “size (nm)” value [2] was 59.97 nm.

With `CCCCCCCCC(CCCCCC)CNC(=O)CCCCCN(CCO)CCN(CCCCC(COC(=O)CCCCCCC)COC(=O)CCCCCCC)C1CCCCC1` (stereo not drawn) [Compound 140] the “Encapsulation Efficiency” value [1] was 89.74%, the polydispersity [2] was 0.051 and the “size (nm)” value [2] was 71.01 nm.

For `CCCCCCCCC(CCCCCC)CNC(=O)CCCCCN(CCO)CCN(CCCCC(COC(=O)CCCCCCC)COC(=O)CCCCCCC)C1CCCCCCC1` (stereo not drawn) [Compound 145], the “Encapsulation Efficiency” value [1] was 88.63%, the polydispersity [2] was 0.047 and the “size (nm)” value [2] was 68.91 nm.

For `CCCCCCCCC(CCCCCC)COC(=O)CCCCCN(CC=C(C)C)CCN(CCO)CCCCC(COC(=O)CCCCCCC)COC(=O)CCCCCCC` (stereo not drawn) [Compound 148], the “Encapsulation Efficiency” value [1] was 90.40%, the polydispersity [2] was 0.081 and the “size (nm)” value [2] was 64.31 nm.

For `CCCCCCCCC(CCCCCC)CNC(=O)CCCCCN(CC=C(C)C)CCN(CCO)CCCCC(COC(=O)CCCCCCC)COC(=O)CCCCCCC` (stereo not drawn) [Compound 149], the “Encapsulation Efficiency” value [1] was 92.71%, the polydispersity [2] was 0.043 and the “size (nm)” value [2] was 78.75 nm.

In the case of `CCCCCCCCC(CCCCCC)COC(=O)CCCCCN(C)CCN(CCO)CCCCC(COC(=O)CCCCCCC)COC(=O)CCCCCCC` (stereo not drawn) [Compound 156], the “Encapsulation Efficiency” value [1] was 89.69%, the polydispersity [2] was 0.190 and the “size (nm)” value [2] was 73.36 nm.

For `CCCCCCCCC(CCCCCC)CNC(=O)CCCCCN(C)CCN(CCO)CCCCC(COC(=O)CCCCCCC)COC(=O)CCCCCCC` (stereo not drawn) [Compound 158], the “Encapsulation Efficiency” value [1] was 89.17%, the polydispersity [2] was 0.058 and the “size (nm)” value [2] was 63.54 nm.

With `CCCCCCCCC(CCCCCC)CNC(=O)CCCCCN(CC)CCN(CCO)CCCCC(COC(=O)CCCCCCC)COC(=O)CCCCCCC` (stereo not drawn) [Compound 159] the “Encapsulation Efficiency” value [1] was 90.71%, the polydispersity [2] was 0.080 and the “size (nm)” value [2] was 77.72 nm.

For `CCCCCCCC(=O)OCC(CCCCN(CCO)CCN(CCCCC(COC(=O)CCCCCCC)COC(=O)CCCCCCC)C1CCCCCC1)COC(=O)CCCCCCC` [Compound 160], the “Encapsulation Efficiency” value [1] was 86.18%, the polydispersity [2] was 0.096 and the “size (nm)” value [2] was 86.16 nm.

In the case of `CCCCCCCC(=O)OCC(CCCCN(CC=C(C)C)CCN(CCO)CCCCC(COC(=O)CCCCCCC)COC(=O)CCCCCCC)COC(=O)CCCCCCC` [Compound 162], the “Encapsulation Efficiency” value [1] was 85.46%, the polydispersity [2] was 0.068 and the “size (nm)” value [2] was 82.68 nm.

With `CCCCCCCCCC(=O)OCC(CCCCN(CCO)CCN(CCCCC(COC(=O)CCCCCCCCC)COC(=O)CCCCCCCCC)C1CCC1)COC(=O)CCCCCCCCC` [Compound 167] the “Encapsulation Efficiency” value [1] was 91.97%, the polydispersity [2] was 0.128 and the “size (nm)” value [2] was 69.47 nm.
